Assay results reported in paper PMC6048956, “A Double-Blind, Placebo-Controlled Trial Demonstrating the Safety, Tolerability, and Pharmacokinetics of Single, Escalating Oral Doses of RTI-336” (Frontiers in Pharmacology, 2018).
Entries after “also recorded” stand apart in the source; their conditions may differ. Like-named read-outs stand apart in the source and are kept apart here.

Experiments:
mice [1] = assay: Preclinical toxicology, seizures in mice
monkeys [2] = settings: 9 mg/kg/day, 14-day; cited from earlier work
rats [3] = settings: acute and reversible with reduced dosing, preclinical toxicology; cited from earlier work
monkeys [4] = settings: acute and reversible with reduced dosing, preclinical toxicology; cited from earlier work
rhesus monkey = system: rhesus monkey; set-up: method as in Carroll et al., 2006a,b; Carroll, 2007; Howell et al., 2007; settings: rhesus monkey model, ref Carroll et al., 2006a,b, 2007, Howell et al.; cited from earlier work
dopamine reuptake = dopamine reuptake (Homo sapiens, UniProt Q01959); assay: Inhibition of dopamine reuptake; type: biochemical
rats [5] = settings: rats co-administered RTI-336 with cocaine, ref data on file; cited from earlier work
rat = system: rat; set-up: method as in Carroll et al., 2006a,b; Carroll, 2007; Howell et al., 2007; settings: rat model, ref Carroll et al., 2006a,b, 2007, Howell et al.; cited from earlier work
[6] = co-administration with ethanol, ref data on file, RTI, cited from earlier work
[7] = preclinical toxicology; cited from earlier work
mice [8] = settings: up to 75 mg/kg, preclinical toxicology; cited from earlier work
dog = settings: 3 mg/kg, 22 h after the dose, preclinical toxicology; cited from earlier work
[9] = co-administration with morphine; ref data on file, RTI; cited from earlier work
[10] = system: healthy male participants; assay: Safety and tolerability of single, escalating oral doses (trial RTI-336-001); type: in vivo, human; settings: for serum total bilirubin elevation: day 3 post-dose
Protocol: (§1) RTI-336-001 was a single-center, double-blind, placebo-controlled, and randomized clinical trial to evaluate the safety, tolerability, and PK of single, escalating oral doses of RTI-336 (0.3, 1, 3, 6, 12, and 20 mg) in 2 cohorts (lowest 3 doses and highest 3 doses) of healthy male participants. RTI-336 and placebo capsules were identical in appearance, and participants, care providers, and those assessing outcomes were blinded to study drug assignment. Each cohort was to be enrolled in 2 groups of 5 participants (randomized 4:1 drug:placebo independently at each dose); the second group was dosed 24 h after the first group, following a safety review of the first group. Each participant would receive up to 3 single, escalating oral doses (in periods 1, 2, and 3) of study drug under fasting conditions, with a minimum of 10 days between doses, and could only participate in one cohort. The number of participants is typical for first-in-man safety and PK studies, and the trial ran to completion.
Orthostatic vital signs (HR, systolic and diastolic blood pressure, and respiratory rate) were obtained pre-dose and at 1, 2, 4, 8, 12, 24, and 48 h post-dose. Body weight was measured at screening, on admissions to the clinic for dosing, and at 7 days following their final dose. Physical examinations of all major organ systems (including neurological examination) were performed at admission and at 48 h post-dose. Adverse events (AEs) were monitored from dosing until 8 days post-dose or resolution, whichever was longer.
Six-lead ECG telemetry was monitored from 15 min pre-dose until 8 h post-dose. Supine 12-lead ECGs were obtained pre-dose and at 1, 2, 4, 8, 12, 24, and 48 h post-dose.
Urine for urinalysis (bacteria, bilirubin, blood, glucose, ketones, leukocyte esterase, nitrite, pH, protein, red blood cells, specific gravity, urobilinogen, and WBC) was collected pre-dose and 48 h post-dose. Unfasted blood samples for chemistry (including troponin, albumin, alkaline phosphatase, ALT, AST, BUN, calcium, chloride, CK, creatinine, GGT, globulin, glucose, LDH, phosphorus, potassium, sodium, total bilirubin, total cholesterol, total protein, triglycerides, and uric acid) and hematology (basophils, eosinophils, Hct, Hgb, lymphocytes, RBC indices, monocytes, neutrophils, platelets, RBC, and WBC) were obtained on admission and fasted samples at 48 h post-dose.
The Mini Mental Status Examination (MMSE) ([Folstein et al., 1975]; [Malloy et al., 1997]) was performed on admission to the clinic and at 4 and 8 h post-dose.

[11] = Plasma pharmacokinetics after single oral doses of RTI-336 in healthy males; type: in vivo, human; settings: for half-life / AUC(0-inf) / Cmax / Tmax: male, human, plasma; for half-life: po
Protocol: as §1
Blood samples were obtained at 0.25, 0.5, 1, 1.5, 2, 3, 4, 6, 8, 12, 16, 24, 30, 36, and 48 h post-dose. Cumulative urine specimens were collected over the intervals 0–6, 6–12, 12–24, 24–36, and 36–48 h post-dose.

[12] = humans, single oral doses up to 20 mg
[13] = single oral dose 1 mg, fasted, healthy males
[14] = single oral dose 3 mg, fasted, healthy males
[15] = single oral dose 6 mg, fasted, healthy males
[16] = single oral dose 12 mg, fasted, healthy males
[17] = single oral dose 20 mg, fasted, healthy males

Chain of dopamine reuptake (Q01959 whole entry): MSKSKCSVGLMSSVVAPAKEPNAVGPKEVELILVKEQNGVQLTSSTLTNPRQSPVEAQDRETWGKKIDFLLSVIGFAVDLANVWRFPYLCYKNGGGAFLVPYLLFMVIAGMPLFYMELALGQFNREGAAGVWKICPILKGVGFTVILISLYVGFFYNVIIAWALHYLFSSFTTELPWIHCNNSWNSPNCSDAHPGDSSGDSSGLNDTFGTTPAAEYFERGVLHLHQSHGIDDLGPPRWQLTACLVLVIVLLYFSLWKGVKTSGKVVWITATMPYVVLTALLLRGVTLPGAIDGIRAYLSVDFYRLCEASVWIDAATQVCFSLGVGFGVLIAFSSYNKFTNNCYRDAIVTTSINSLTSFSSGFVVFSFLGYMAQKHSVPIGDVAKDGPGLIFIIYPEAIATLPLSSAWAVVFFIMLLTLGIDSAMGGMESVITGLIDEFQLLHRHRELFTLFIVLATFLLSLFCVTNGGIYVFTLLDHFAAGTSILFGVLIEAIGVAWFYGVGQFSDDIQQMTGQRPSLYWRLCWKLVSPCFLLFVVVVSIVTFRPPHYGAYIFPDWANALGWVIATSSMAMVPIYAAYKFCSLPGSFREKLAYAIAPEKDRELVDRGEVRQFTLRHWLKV

Compound: Cc1ccc(-c2cc([C@@H]3C4CCC(C[C@@H]3c3ccc(Cl)cc3)N4C)on2)cc1 (some centres unmarked) [RTI-336]
- highest seizure-free dose (75 mg/kg) relative to oral ED50 for spontaneous locomotor activity (mice [1]): 7.5 fold
- hepatotoxicity (monkeys [2]): increased ALT activity and/or bilirubin and mild-to-moderate diffuse or centrilobular vacuolar degeneration in hepatocytes
- central nervous system adverse effects (rats [3]): central nervous system stimulation with hyperactivity and stereotypic behavior
- central nervous system adverse effects (monkeys [4]): central nervous system stimulation with hyperactivity and stereotypic behavior
- cocaine self-administration (rhesus monkey): suppresses cocaine self-administration
- IC50 (dopamine reuptake): 23 nM
- effect on acute toxicity of cocaine (rats [5]): no potentiation of the acute toxicity of cocaine
- cocaine self-administration (rat): suppresses cocaine self-administration
- effect on ethanol-related mortality [6]: did not increase ethanol-related mortality
- effect on ethanol-induced incoordination ([6]; rota-rod performance): reduced ethanol-induced incoordination
- cardiovascular effects [7]: low potential for prolonging QTc interval
- seizures (mice [8]): did not occur
- seizures (dog): observed only in one dog
- effect on morphine-related analgesia [9]: did not affect morphine-related analgesia
- effect on weight loss [9]: did increase weight loss
- serum total bilirubin elevation ([10]; 2 participants, transient and mild, resolved by day 8): < 1.5 × ULN
- effects on the MMSE ([10]; 4 and 8 h post-dose): No effects were observed
- participants with AEs ([10]; cumulative dose 6 mg or greater): 4 of 11
- participants with AEs ([10]; cumulative doses less than 6 mg): 3 of 10
- ECG abnormalities [10, 12]: no ECG abnormalities
- behavioral stimulation (hyperactivity, stereotypic behavior) [10, 12]: no such behavioral stimulation
- Adverse events ([10]; participant S031, cohort 1, period 2, 1 mg): Body temperature decreased
- Adverse events ([10]; participant S031, cohort 1, period 3, 3 mg, cumulative 4 mg): Body temperature decreased, chalazion
- Adverse events ([10]; participant S038, cohort 1, following 3 mg, cumulative 3.3 mg, possibly related to study drug): Somnolence^b
- serum total bilirubin elevation ([10]; participant S046, 1 mg): 1.08 × ULN
- total bilirubin ([10]; participant S046, 1 mg, day 3 post-dose (ULN 20.5; 13.68 pre-dose, 8.55 day 8)): 22.23
- serum total bilirubin elevation ([10]; participant S046, 3 mg): 1.001 × ULN
- total bilirubin ([10]; participant S046, 3 mg, day 3 post-dose (6.84 pre-dose, 5.13 day 8)): 20.52
- Adverse events ([10]; participant S059, cohort 2, 6 mg): Soft tissue inflammation
- serum total bilirubin elevation ([10]; participant S069, 6 mg): 1.25 × ULN
- total bilirubin ([10]; participant S069, 6 mg, day 3 post-dose (10.26 pre-dose, 10.26 day 8)): 25.65
- Adverse events ([10]; participant S069, cohort 2, 6 mg, related to their activities, not to study drug): Blood creatine phosphokinase increased
- Adverse events ([10]; participant S078, cohort 2, 6, 12, 20 mg, cumulative 38 mg): Nasal congestion, pharyngolaryngeal pain
- effects on other chemistry or hematology, urinalysis, vital sign, or ECG results ([10]; single oral doses 0.3-20 mg): No systematic RTI-336 effects were observed
- tolerability ([10]; single oral doses 0.3-20 mg, healthy males): well-tolerated up to the maximum evaluated dose of 20 mg; also recorded: well-tolerated at single doses of up to 20 mg; also recorded: free of significant side effects or toxicity
- maximum tolerated dose ([10]; single oral doses up to 20 mg): not identified
- dose proportionality of plasma drug exposure (AUC0-inf) and Cmax ([11]; 1-20 mg single oral dose range): increased in proportion to dose; also recorded: increased dose proportionally
- time of peak plasma RTI-336 concentration ([11]; across 1-20 mg single oral dose levels, fasted): around 4 h
- half-life ([11]; 1 mg, single oral dose 1 mg, fasted, healthy males, read-out: t1/2 (converted)): 5.44 h
- half-life ([11]; 3 mg, single oral dose 3 mg, fasted, healthy males, read-out: t1/2 (converted)): 7.07 h
- half-life ([11]; 6 mg, single oral dose 6 mg, fasted, healthy males, read-out: t1/2 (converted)): 17.9 h
- half-life ([11]; 12 mg, single oral dose 12 mg, fasted, healthy males, read-out: t1/2 (converted)): 15.3 h
- half-life ([11]; 20 mg, across 6, 12 and 20 mg single oral doses, read-out: plasma half-life (converted)): ~17 h
- half-life ([11]; 20 mg, single oral dose 20 mg, fasted, healthy males, read-out: t1/2 (converted)): 18 h
- AUC(0-inf) [11, 13]: 3.8 ng·h/mL
- Cmax [11, 13]: 0.375 ng/mL
- Tmax [11, 13]: 4.5 h
- AUC(0-inf) [11, 14]: 12.3 ng·h/mL
- Cmax [11, 14]: 1.04 ng/mL
- Tmax [11, 14]: 3.71 h
- AUC(0-inf) [11, 15]: 40.4 ng·h/mL
- Cmax [11, 15]: 3.26 ng/mL
- Tmax [11, 15]: 4.38 h
- AUC(0-inf) [11, 16]: 63.1 ng·h/mL
- Cmax [11, 16]: 5.23 ng/mL
- Tmax [11, 16]: 3.67 h
- AUC(0-inf) [11, 17]: 115 ng·h/mL
- Cmax [11, 17]: 10.3 ng/mL
- Tmax [11, 17]: 3.43 h
